Source: the supplement of paper PMC10307832

Assays:
Assay in all cases: relative viability (nuclei count vs DMSO), 5 days (fraction); higher = more cells survive
SGI-1776 + Decitabine = compound: CN1CCC(CNc2ccc3ncc(-c4cccc(OC(F)(F)F)c4)n3n2)CC1 [SGI-1776] + Nc1ncn([C@H]2C[C@H](O)[C@@H](CO)O2)c(=O)n1 [Decitabine] (partner 2 µM)
Summary of the method: (§1)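 Relative viability equals treated-well nuclei counts divided by vehicle-well nuclei counts. Counts came from 4× images of lung cancer cell lines grown in 1536-well plates for 5 days after pin-tool dosing on the day after seeding. Dosing used one drug alone or a fixed anchor-drug dose plus five library-drug doses (not always all listed) in √10 steps, and values are medians of duplicate plates.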

Entinostat + Trametinib = compound: Nc1ccccc1NC(=O)c1ccc(CNC(=O)OCc2cccnc2)cc1 [Entinostat] + CC(=O)Nc1cccc(-n2c(=O)n(C3CC3)c(=O)c3c(Nc4ccc(I)cc4F)n(C)c(=O)c(C)c32)c1 [Trametinib] (partner 0.02 µM)
Summary of the method: as §1

[1] = compound: C1COCCN1C2=NC(=NC3=C2OC4=C3C=CC=N4)C5=CC(=CC=C5)NC(=O)C6=CN=C(C=C6)N + CCNC(=O)c1noc(-c2cc(C(C)C)c(O)cc2O)c1-c1ccc(CN2CCOCC2)cc1 [Luminespib] (partner 0.01 µM)
Summary of the method: as §1

SGI-1776 + Phenformin = compound: CN1CCC(CNc2ccc3ncc(-c4cccc(OC(F)(F)F)c4)n3n2)CC1 [SGI-1776] + N=C(N)NC(=N)NCCc1ccccc1 [Phenformin] (partner 250 µM)
Summary of the method: as §1

UMC-11
relative viability (SGI-1776 + Decitabine; first compound 0.08 µM): 0.588 | relative viability (SGI-1776 + Decitabine; first compound 0.8 µM): 0.571 | relative viability (SGI-1776 + Decitabine; first compound 2.53 µM): 0.654 | relative viability (SGI-1776 + Decitabine; first compound 8 µM): 0.467 | relative viability (Entinostat + Trametinib; first compound 0.02 µM): 0.736 | relative viability (Entinostat + Trametinib; first compound 0.06325 µM): 0.895 | relative viability (Entinostat + Trametinib; first compound 0.2 µM): 0.554 | relative viability (Entinostat + Trametinib; first compound 0.6325 µM): 0.163 | relative viability (Entinostat + Trametinib; first compound 2 µM): 0.142 | relative viability ([1]; first compound 0.02 µM): 1.13 | relative viability ([1]; first compound 0.06325 µM): 1.07 | relative viability ([1]; first compound 0.2 µM): 1.02 | relative viability ([1]; first compound 0.6325 µM): 1.07 | relative viability ([1]; first compound 2 µM): 0.628 | relative viability (SGI-1776 + Phenformin; first compound 0.08 µM): 0.31 | relative viability (SGI-1776 + Phenformin; first compound 0.8 µM): 0.322 | relative viability (SGI-1776 + Phenformin; first compound 2.53 µM): 0.302 | relative viability (SGI-1776 + Phenformin; first compound 8 µM): 0.252
